According to article PMC9170034 (Proceedings of the National Academy of Sciences of the …, 2022):
Where two headings read alike, the source gives them in different places.

Assays:
SHV (R244S) = system: SHV (R244S); set-up: method as in earlier work; conditions: periplasmic extracts; nitrocefin; 5 min pre-incubation; ref 2 (Papp-Wallace et al., 2019); cited from earlier work
OXA-10 [1] = molecular target: T1, OXA-10 (Pseudomonas aeruginosa, UniProt P14489); test: IC50/pIC50 determination with fluorescent reporter substrate FC-5 after pre-incubation; assay type: biochemical; conditions: Table S1, read-out: pIC50 at pH 7.5, OXA-10 (converted)
T1 construct: His tag (N); made in house
Experimental: Kinetic analyses were performed (at least in triplicate) using either BMG LABTECH PHERAstar or CLARIOstar plate readers. Unless stated otherwise, reactions were in 50 mM phosphate buffer, pH 7.5, containing 0.01% (vol/vol) aqueous Triton X-100, and, in the case of OXA-10, 10 mM sodium bicarbonate. […] Nonlinear regression analysis was performed with Prism 5 (GraphPad Software).
IC50s were determined as reported ([35]). […] The apparent inhibitory constant Kiapp and the second-order rate constant kinact/K (or k2/K) were determined using reported methods ([60]). SBLs were reacted with the reporter substrate in the presence of varied inhibitor concentrations. Reactions were initiated by SBL addition and immediately monitored for 60 to 120 s (until they plateaued). […] P=Vst+(V0−VS)(1−e^−kobst)/kobs+P0.

KPC-3 = system: KPC-3; set-up: method as in earlier work; conditions: periplasmic extracts; nitrocefin; 5 min pre-incubation; ref 2 (Papp-Wallace et al., 2019); cited from earlier work
TEM-30 = system: TEM-30; set-up: method as in earlier work; conditions: periplasmic extracts; nitrocefin; 5 min pre-incubation; ref 2 (Papp-Wallace et al., 2019); cited from earlier work
TEM-116 = TEM-116 (Escherichia coli, UniProt P62593, A182V/V82I); test: SPE-MS study of prolonged reaction of SBL with penam sulfones; conditions: prolonged incubation (8 h) with 100 equiv.
Experimental: Mass spectra were acquired in the positive ion mode using an integrated autosampler/SPE RapidFire365 system (Agilent Technologies) coupled to an Agilent 6550 Accurate Mass QTOF spectrometer. After the indicated time, 50 μL of the solution was loaded onto a C4 SPE cartridge (Agilent Technologies), then washed with buffer A (100% [vol/vol] water, 0.1% [vol/vol] formic acid), then eluted into the mass spectrometer in buffer B (15% [vol/vol] water, 85% [vol/vol] acetonitrile, 0.1% [vol/vol] formic acid). The cartridge was reequilibrated in buffer A in between samples. Data were analyzed using MassHunter Qualitative Analysis software V.7 (Agilent Technologies) using the maximum entropy deconvolution algorithm.

OXA-51 = system: OXA-51; set-up: method as in earlier work; conditions: periplasmic extracts; nitrocefin; 5 min pre-incubation; ref 2 (Papp-Wallace et al., 2019); cited from earlier work
OXA-1 = system: OXA-1; set-up: method as in earlier work; conditions: periplasmic extracts; nitrocefin; 5 min pre-incubation; ref 2 (Papp-Wallace et al., 2019); cited from earlier work
OXA-10 [2] = molecular target: T1, OXA-10; test: Kiapp and kinact/K determination in competition with FC-5; assay type: biochemical; conditions: OXA-10 (50 nM), FC-5 (5 µM); pH 7.5; 10 mM NaHCO3; read-out: Kiapp, OXA-10
Experimental: Kinetic analyses were performed (at least in triplicate) using either BMG LABTECH PHERAstar or CLARIOstar plate readers. Unless stated otherwise, reactions were in 50 mM phosphate buffer, pH 7.5, containing 0.01% (vol/vol) aqueous Triton X-100, and, in the case of OXA-10, 10 mM sodium bicarbonate. Assays were performed in competition with either the fluorescent reporter substrate FC-5 ([35]), using black-walled microplates (Greiner Bio-One μCLEAR, PS, F-bottom, black), and measuring fluorescence intensity (ʎex = 380 nm and ʎem = 460 nm), or with nitrocefin (NCF), using ultraviolet transparent plates (Greiner Bio-One UV-Star, COC, F-bottom, clear) and measuring absorbance (ʎAbs = 486 nm, using path-length correction). Nonlinear regression analysis was performed with Prism 5 (GraphPad Software).
IC50s were determined as reported ([35]). TEM-116 (1 nM), AmpCEC (500 pM), or OXA-10 (250 pM) were incubated with varied inhibitor concentrations at room temperature (r.t.) for the indicated time then assayed using 5 µM FC-5. The apparent inhibitory constant Kiapp and the second-order rate constant kinact/K (or k2/K) were determined using reported methods ([60]). SBLs were reacted with the reporter substrate in the presence of varied inhibitor concentrations. Reactions were initiated by SBL addition and immediately monitored for 60 to 120 s (until they plateaued). […]

KPC-2 = system: KPC-2; set-up: method as in earlier work; conditions: periplasmic extracts; nitrocefin; 5 min pre-incubation; ref 2 (Papp-Wallace et al., 2019); cited from earlier work
SHV-1 = conditions: periplasmic extracts; nitrocefin; 5 min pre-incubation; ref 2 (Papp-Wallace et al., 2019); cited from earlier work
AmpC E. cloacae = system: AmpC E. cloacae; set-up: method as in earlier work; conditions: periplasmic extracts; nitrocefin; 5 min pre-incubation; ref 2 (Papp-Wallace et al., 2019); cited from earlier work
SHV-49 = conditions: periplasmic extracts; nitrocefin; 5 min pre-incubation; ref 2 (Papp-Wallace et al., 2019); cited from earlier work
TEM-26 = system: TEM-26; set-up: method as in earlier work; conditions: periplasmic extracts; nitrocefin; 5 min pre-incubation; ref 2 (Papp-Wallace et al., 2019); cited from earlier work
CTX-M-14 = system: CTX-M-14; set-up: method as in earlier work; conditions: periplasmic extracts; nitrocefin; 5 min pre-incubation; ref 2 (Papp-Wallace et al., 2019); cited from earlier work
OXA-58 = system: OXA-58; set-up: method as in earlier work; conditions: periplasmic extracts; nitrocefin; 5 min pre-incubation; ref 2 (Papp-Wallace et al., 2019); cited from earlier work
CTX-M-15 = system: CTX-M-15; set-up: method as in earlier work; conditions: periplasmic extracts; nitrocefin; 5 min pre-incubation; ref 2 (Papp-Wallace et al., 2019); cited from earlier work
OXA-48 = system: OXA-48; set-up: method as in earlier work; conditions: periplasmic extracts; nitrocefin; 5 min pre-incubation; ref 2 (Papp-Wallace et al., 2019); cited from earlier work
CMY-2 = system: CMY-2; set-up: method as in earlier work; conditions: periplasmic extracts; nitrocefin; 5 min pre-incubation; ref 2 (Papp-Wallace et al., 2019); cited from earlier work

T1 sequence (P14489 20-266): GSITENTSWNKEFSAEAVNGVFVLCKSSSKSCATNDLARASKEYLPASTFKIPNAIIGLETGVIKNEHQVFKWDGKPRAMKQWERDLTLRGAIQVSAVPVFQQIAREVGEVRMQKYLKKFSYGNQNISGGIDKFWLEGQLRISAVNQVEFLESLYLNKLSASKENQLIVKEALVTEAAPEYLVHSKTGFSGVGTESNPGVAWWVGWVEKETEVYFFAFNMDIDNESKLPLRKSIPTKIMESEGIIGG

For `C[C@]1(Cn2ccnn2)[C@H](C(=O)O)N2C(=O)C[C@H]2S1(=O)=O` [tazobactam], the IC50 (SHV (R244S)) is given as 390 ± 40 nM, the IC50 (OXA-10 [1]; with 100 mM added NaHCO3, 0 min pre-incubation) is given as 3890 nM and the IC50 (OXA-10 [1]; with 100 mM added NaHCO3, 10 min pre-incubation) is given as 1910 nM. It also gave an IC50 (OXA-10 [1]; with 100 mM added NaHCO3, 30 min pre-incubation) of 851 nM, an IC50 (OXA-10 [1]; with 100 mM added NaHCO3, 60 min pre-incubation) of 562 nM and an IC50 (OXA-10 [1]; with 100 mM added NaHCO3, 360 min pre-incubation) of 204 nM. It also gave an IC50 (OXA-10 [1]; without added NaHCO3, 0 min pre-incubation) of 5010 nM, an IC50 (OXA-10 [1]; without added NaHCO3, 10 min pre-incubation) of 1480 nM and an IC50 (OXA-10 [1]; without added NaHCO3, 30 min pre-incubation) of 891 nM. For the same compound, the IC50 (OXA-10 [1]; without added NaHCO3, 60 min pre-incubation) was 457 nM, the IC50 (OXA-10 [1]; without added NaHCO3, 360 min pre-incubation) was 234 nM and the IC50 (KPC-3) was 4400 ± 500 nM. The IC50 (TEM-30) was […], the “−18-Da species, TEM-116” value (TEM-116) was “not observed” and the IC50 (OXA-51) was greater than 100000 nM. For the same compound, the IC50 (OXA-1) was 8600 ± 900 nM, the Ki (OXA-10 [2]) was 469000 ± 80000 nM and the IC50 (KPC-2) was 3700 ± 400 nM. For the same compound, the IC50 (SHV-1) was 26 ± 3 nM, the IC50 (AmpC E. cloacae) was 5100 ± 500 nM and the IC50 (SHV-49) was 730 ± 80 nM. For the same compound, the IC50 (TEM-26) was 23 ± 1 nM, the IC50 (CTX-M-14) was […] and the IC50 (OXA-58) was 26000 ± 3000 nM. For the same compound, the IC50 (CTX-M-15) was 6 ± 1 nM, the IC50 (OXA-48) was 1500 ± 200 nM and the IC50 (CMY-2) was 2500 ± 300 nM.
